# Results from patent publication US20080255206A1, “Rxr Agonists and Antagonists, Alone or in Combination with Ppar Ligands, in the Treatment of Metabolic and Cardiovascular Diseases” (priority 2005, published 2008).
# Experiments:
# [1] = system: myeloperoxidase (MPO) activity; assay: Acute inflammation of mouse ears, MPO activity; format: in vivo, C57BL/6 mice; conditions: 9-cis RA 0.05% alone, topical, 4 d
# Experimental: […] mice of the C57BL/6 strain are used. Inflammation is induced on mouse ears with either AtRA, 9-cis RA or TPA by topical application. Inflammation is measured objectively by determination of the activity of myeloperoxidase (MPO) being directly correlated to the infiltration of polymorphonuclear white blood cells and by the determination of mRNA expression of c-jun, a protein implicated in the AP-1 transduction pathway according to known methods, see e.g. P. L. Stanley et al., Skin Pharmacol. 4, 262-271 (1991) (MPO assay), N. Basset-Sequin et al., J. Invest. Dermatol. 94, 418-422 (1990), F. J. Rauscher et al., Cell 52, 471-480 […], P. Sassone-Corn et al., Nature 326, 507-510 (1987), and M. Pfahl, Endocr. Rev. 14, 651-658, 1993, which are incorporated by reference regarding the experimental method.
# In the “acute inflammation” test, mice are treated topically (epicutaneously), orally or intraperitoneally, daily for 4 days. In the “semi chronic inflammation” test, mice are treated topically according to the schedules given below. For each experiment, a group of at least 4 mice of both sexes are used in the defined condition, regarding placebo, vehicle control, compound, topical formulation, oral formulation, dosage and concentration. The topical vehicle consists of ethanol/PEG 400/water (3:1:1).
# The anti-inflammatory effect of topical RXR antagonist compound 15 is tested by determination of myeloperoxidase activity in % of vehicle treated controls. For induction of inflammation 9-cis RA or TPA are applied topically to the skin, daily for 4 days. The RXR antagonist compound 15 (see Table 1) is administered topically one hour after the application of the inflammation inducing agent. The mice are sacrified 24 hours after the last treatment.
# synovial fibroblasts = assay: In vitro cartilage degradation by synovial fibroblasts (sGAG release); format: cell-based, human; conditions: for sGAG release: 14 days
# Experimental: Furthermore, it is determined whether this is accompanied by a modulation in the accumulation of the mRNA encoding catabolic enzyme matrix metalloproteinase-1 (MMP-1), responsible for degradation of human cartilage and consequently joint destruction in man. Adherent synovial fluid cells taken from a patient with RA are used after 5 passages in an in vitro assay for cartilage destruction. The cells incubated in flasks coated with 0.1% (0.1 g/100 ml) human cartilage powder are fixed using Matrigel® (BD Biosciences, Becton, Dickinson & Co., Boston, Mass., USA). The release of sulphated glycosaminoglycan (sGAG) into the culture medium is monitored by a commercial colorimetric test according to a method described by S. Björnsson, see Anal. […] This is conducted in the presence or absence of IL-1β (100 pg/ml).
# skin of mice = assay: Topical administration to the skin of mice (irritation); format: in vivo; conditions: concentrations up to 2.5%
# db/db mice = assay: Investigation with db/db mice (blood glucose and lipids); format: in vivo, mouse; conditions: for Glucose Diff. D o − D 12 / HDL-cholesterol Diff. D o − D 12 / Total cholesterol Diff. D o − D 12 / Triglycerides Diff. D o − D 12: change day 0 to day 12; for Glucose D o / HDL-cholesterol D o / Total cholesterol D o / Triglycerides D o: day 0; for Glucose D 12 / HDL-cholesterol D 12 / Total cholesterol D 12 / Triglycerides D 12: day 12; for Glucose D-4 / HDL-cholesterol D-4 / Total cholesterol D-4 / Triglycerides D-4: day −4
# Experimental: The following compounds are investigated and compared to placebo (vehicle control).
# The mentioned 3 compounds are tested in db/db mice during a time when diabetes is in a rapid developing stage. […] Each dosage group and the vehicle group comprise 7 mice. The suspensions used are prepared with peroxide free arachis oil as vehicle. Blood samples are collected by retro-orbital bleeding at days −4, 0 and 12. The blood levels of glucose, triglycerides, total cholesterol, and HDL-cholesterol are determined.
# For evaluation of efficacy, the difference between the values of glucose, triglycerides, total cholesterol and HDL-cholesterol changing from day 0 to day 12 is determined and expressed in %. […] Overall evaluation consists in determining the efficacy of the compounds by calculating the whole extent of the effect expressed in %. […] This value is considered as a valuable indicator for the efficacy of the investigated compounds administered in a tolerated dose.
# [2] = 30 mg/kg/day group versus vehicle group
smiles,measurement,setting,value
"CC1=C(/C=C/C(C)=C\C=C\C(C)=C\C(=O)O)C(C)(C)CCC1 [9-cis RA, 9-cis retinoic acid, reference compound]",MPO activity (% vehicle treated mice),[1],647 ± 142 % vehicle treated mice
same,Effect on cartilage destruction in vitro (in words),synovial fibroblasts; absence of IL-1β,increases cartilage destruction in vitro in a dose-dependent manner
same,sGAG release,"synovial fibroblasts; absence of IL-1β, 10^−7 M",189 µg/mL
same,sGAG release,"synovial fibroblasts; absence of IL-1β, 10^−8 M",107 µg/mL
same,Cumulative sGAG,"synovial fibroblasts; absence of IL-1β, 10^−8 M, day 7",44 µg/mL
same,Cumulative sGAG,"synovial fibroblasts; absence of IL-1β, 10^−8 M, day 14",107 µg/mL
same,Cumulative sGAG,"synovial fibroblasts; absence of IL-1β, 10^−8 M, day 21",206 µg/mL
same,Cumulative sGAG,"synovial fibroblasts; absence of IL-1β, 10^−8 M, day 28",253 µg/mL
same,Cumulative sGAG,"synovial fibroblasts; absence of IL-1β, 10^−8 M, day 35",292 µg/mL
same,sGAG release,"synovial fibroblasts; absence of IL-1β, 10^−9 M",64 µg/mL
same,sGAG release,"synovial fibroblasts; presence of 100 pg/ml IL-1β, 10^−7 M",221 µg/mL
same,sGAG release,"synovial fibroblasts; presence of 100 pg/ml IL-1β, 10^−8 M",189 µg/mL
same,Cumulative sGAG,"synovial fibroblasts; presence of 100 pg/ml IL-1β, 10^−8 M, day 7",68 µg/mL
same,Cumulative sGAG,"synovial fibroblasts; presence of 100 pg/ml IL-1β, 10^−8 M, day 14",189 µg/mL
same,Cumulative sGAG,"synovial fibroblasts; presence of 100 pg/ml IL-1β, 10^−8 M, day 21",330 µg/mL
same,Cumulative sGAG,"synovial fibroblasts; presence of 100 pg/ml IL-1β, 10^−8 M, day 28",407 µg/mL
same,Cumulative sGAG,"synovial fibroblasts; presence of 100 pg/ml IL-1β, 10^−8 M, day 35",441 µg/mL
same,sGAG release,"synovial fibroblasts; presence of 100 pg/ml IL-1β, 10^−9 M",204 µg/mL
"CC1=C(/C=C/C2=C(/C=C/C(C)=C/C(=O)O)CCCCC2)C(C)(C)CCC1 [Compound 1, (2E,4E)-3-methyl-5-[2-[(E)-2-(2,6,6-trimethyl-1-cyclohexen-1-yl)ethenyl]-1-cyclohepten-1-yl]-2,4-pentadienoic acid]",Irritation or inflammation of the skin,skin of mice,does not lead to irritation or inflammation of the skin
same,Glucose Diff. D o − D 12,db/db mice; 0.3 mg/kg/day i.p.,+57.5%
same,HDL-cholesterol Diff. D o − D 12,db/db mice; 0.3 mg/kg/day i.p.,−3.2%
same,Total cholesterol Diff. D o − D 12,db/db mice; 0.3 mg/kg/day i.p.,−14.1%
same,Triglycerides Diff. D o − D 12,db/db mice; 0.3 mg/kg/day i.p.,+25.4%
same,Glucose D o,db/db mice; 0.3 mg/kg/day i.p.,207 mg/dL
same,HDL-cholesterol D o,db/db mice; 0.3 mg/kg/day i.p.,3.78 mmol/L
same,Total cholesterol D o,db/db mice; 0.3 mg/kg/day i.p.,4.27 mmol/L
same,Triglycerides D o,db/db mice; 0.3 mg/kg/day i.p.,1.73 mmol/L
same,Glucose D 12,db/db mice; 0.3 mg/kg/day i.p.,326 mg/dL
same,HDL-cholesterol D 12,db/db mice; 0.3 mg/kg/day i.p.,2.69 mmol/L
same,Total cholesterol D 12,db/db mice; 0.3 mg/kg/day i.p.,3.67 mmol/L
same,Triglycerides D 12,db/db mice; 0.3 mg/kg/day i.p.,2.17 mmol/L
same,Glucose D-4,db/db mice; 0.3 mg/kg/day i.p.,138 mg/dL
same,HDL-cholesterol D-4,db/db mice; 0.3 mg/kg/day i.p.,2.65 mmol/L
same,Total cholesterol D-4,db/db mice; 0.3 mg/kg/day i.p.,4.26 mmol/L
same,Triglycerides D-4,db/db mice; 0.3 mg/kg/day i.p.,1.83 mmol/L
same,Glucose levels (in words),db/db mice; 3 mg/kg/day,no significant change
same,HDL-cholesterol levels (in words),db/db mice; 3 mg/kg/day,not influenced
same,Triglyceride levels (in words),db/db mice; 3 mg/kg/day,hardly influenced
same,Glucose Diff. D o − D 12,db/db mice; 3.0 mg/kg/day i.p.,+40.7%
same,HDL-cholesterol Diff. D o − D 12,db/db mice; 3.0 mg/kg/day i.p.,−19.6%
same,Total cholesterol Diff. D o − D 12,db/db mice; 3.0 mg/kg/day i.p.,−19.9%
same,Triglycerides Diff. D o − D 12,db/db mice; 3.0 mg/kg/day i.p.,+15.3%
same,Glucose D o,db/db mice; 3.0 mg/kg/day i.p.,194 mg/dL
same,HDL-cholesterol D o,db/db mice; 3.0 mg/kg/day i.p.,3.37 mmol/L
same,Total cholesterol D o,db/db mice; 3.0 mg/kg/day i.p.,4.68 mmol/L
same,Triglycerides D o,db/db mice; 3.0 mg/kg/day i.p.,1.83 mmol/L
same,Glucose D 12,db/db mice; 3.0 mg/kg/day i.p.,273 mg/dL
same,HDL-cholesterol D 12,db/db mice; 3.0 mg/kg/day i.p.,2.71 mmol/L
same,Total cholesterol D 12,db/db mice; 3.0 mg/kg/day i.p.,3.75 mmol/L
same,Triglycerides D 12,db/db mice; 3.0 mg/kg/day i.p.,2.11 mmol/L
same,Glucose D-4,db/db mice; 3.0 mg/kg/day i.p.,155 mg/dL
same,HDL-cholesterol D-4,db/db mice; 3.0 mg/kg/day i.p.,2.53 mmol/L
same,Total cholesterol D-4,db/db mice; 3.0 mg/kg/day i.p.,4.25 mmol/L
same,Triglycerides D-4,db/db mice; 3.0 mg/kg/day i.p.,1.85 mmol/L
same,Glucose levels (in words),db/db mice; 30 mg/kg/day,decrease markedly
same,HDL-cholesterol levels (in words),db/db mice; 30 mg/kg/day,markedly increased
same,Total cholesterol levels (in words),db/db mice; 30 mg/kg/day,slightly higher
same,Triglyceride levels (in words),db/db mice; 30 mg/kg/day,decreasing significantly
same,Overall extent of the effect on blood levels of Glucose,db/db mice; [2],−62.5%
same,Overall extent of the effect on blood levels of HDL-cholesterol,db/db mice; [2],+18.4%
same,Overall extent of the effect on blood levels of Total cholesterol,db/db mice; [2],−16.6%
same,Overall extent of the effect on blood levels of Triglycerides,db/db mice; [2],−21.5%
same,Glucose Diff. D o − D 12,db/db mice; 30 mg/kg/day i.p.,−12.3%
same,HDL-cholesterol Diff. D o − D 12,db/db mice; 30 mg/kg/day i.p.,+14.6%
same,Total cholesterol Diff. D o − D 12,db/db mice; 30 mg/kg/day i.p.,+7.8%
same,Triglycerides Diff. D o − D 12,db/db mice; 30 mg/kg/day i.p.,+0.6%
same,Glucose D o,db/db mice; 30 mg/kg/day i.p.,335 mg/dL
same,HDL-cholesterol D o,db/db mice; 30 mg/kg/day i.p.,2.94 mmol/L
same,Total cholesterol D o,db/db mice; 30 mg/kg/day i.p.,4.21 mmol/L
same,Triglycerides D o,db/db mice; 30 mg/kg/day i.p.,1.7 mmol/L
same,Glucose D 12,db/db mice; 30 mg/kg/day i.p.,206 mg/dL
same,HDL-cholesterol D 12,db/db mice; 30 mg/kg/day i.p.,3.37 mmol/L
same,Total cholesterol D 12,db/db mice; 30 mg/kg/day i.p.,4.54 mmol/L
same,Triglycerides D 12,db/db mice; 30 mg/kg/day i.p.,1.71 mmol/L
same,Glucose D-4,db/db mice; 30 mg/kg/day i.p.,174 mg/dL
same,HDL-cholesterol D-4,db/db mice; 30 mg/kg/day i.p.,2.46 mmol/L
same,Total cholesterol D-4,db/db mice; 30 mg/kg/day i.p.,4.37 mmol/L
same,Triglycerides D-4,db/db mice; 30 mg/kg/day i.p.,2.13 mmol/L
